For 16 compounds, Kd and IC50 results are on record in patent publication US7241754B2, “2-Desmethyl ansamycin compounds” (priority 2003, dated 2007).

The structures appear in SMILES notation.

For one assay, the target named is Hsp90 (Homo sapiens, UniProt P07900). In words: Hsp90 filter binding assay.
For another assay, the system named is SKBr3 cells. Kind of assay: Cytotoxicity against SKBr3 cells (CellTiter-Glo, 72 h). In kind it is cell-based. Particulars: Homo sapiens, SK-BR-3, 72 h, read-out: Cytotoxicity against SKBr3 Cells (IC50, μM). How it is done: Cytotoxicity was determined with SKBr3 cells (ATCC HTB-30), a breast cancer cell line. […] Cells were plated into 96-well microtiter back plates at 4,000 cells per 50μL per well, overnight. Serial 10x dilutions of test compound (10 μM to 0.1 pM) in cell culture media were prepared with a Biomek 2000 apparatus, using the protocols of deeper-1000 μL-media and deeper-1000 μL-dilution. 50 μL of each dilution was added to wells containing cells. Each compound or control (medium only) was tested in duplicate. For each assay, the wells contained a final volume of 100 μL (50 μL of cells and 50 μL of compound dilution). […] CellTiter-Glo Luminescent Reagent (Promega #G7573) (100 μL) was added to each well. The well contents were mixed for 5 min and the plates were kept at room temperature for another 30 min. Luminescence was recorded using a Wallac VICTOR^2 Multilabel Counter (PerkinElmer) and IC50 values were determined using Kaleidagraph software (Synergy Software).
A general note: ATP-based viability assays read luminescence as a measure of living cells.

The test system of the next assay is CCFT-CEM cells. In words: Cytotoxicity against CCFT-CEM cells. Particulars: read-out: IC50, cytotoxicity against CCFT-CEM cells.

A word on the Kd: it is the constant that tells how readily two partners part at equilibrium. One may read the IC50 as the point on the concentration scale where inhibition reaches its midpoint. `CO[C@H]1C[C@H](C)Cc2cc(O)cc(c2)NC(=O)/C=C/CC[C@H](OC)[C@@H](OC(N)=O)/C(C)=C/[C@H](C)[C@H]1O` [Compound 1-A]: the Kd on Hsp90 is 17 nM. The 50% inhibitory concentration (IC50) with SKBr3 cells turned out to be 0.85 µM; with CCFT-CEM cells it was 2500 nM.

`C=CCOc1cc2cc(c1)NC(=O)C=CCCC(OC)C(OC(N)=O)C(C)=CC(C)C(O)C(OC)CC(C)C2` (centres unmarked) [Compound 1-B] had an equilibrium dissociation constant (Kd) at Hsp90 of 1000 nM. Moreover, in the assay on SKBr3 cells, the half-inhibitory concentration (IC50) is greater than 5 µM.

As to `COC1CCC=CC(=O)Nc2cc(cc(OCCN(C)C)c2)CC(C)CC(OC)C(O)C(C)C=C(C)C1OC(N)=O` (centres unmarked) [Compound 1-C], the Kd on Hsp90 came to 230 nM. In addition, the IC50 in the assay on SKBr3 cells is greater than 10 µM.

In turn, `COc1cc2cc(c1)NC(=O)C=CCCC(OC)C(OC(N)=O)C(C)=CC(C)C(O)C(OC)CC(C)C2` (centres unmarked) [Compound 1-D] came in with a Kd on Hsp90 of 510 nM. Moreover, the IC50 in the assay with SKBr3 cells stood at 6 µM.

The compound `COC1CCC=CC(=O)Nc2cc(cc(OCC(N)=O)c2)CC(C)CC(OC)C(O)C(C)C=C(C)C1OC(N)=O` (centres unmarked) [Compound 1-E] had a Kd on Hsp90 of 440 nM. The IC50 in the assay with SKBr3 cells is greater than 5 µM.

With `COC1CCC=CC(=O)Nc2cc(cc(O)c2CN(C)C)CC(C)CC(OC)C(O)C(C)C=C(C)C1OC(N)=O` (centres unmarked) [Compound 1-F], the affinity on Hsp90, expressed as Kd, was 200 nM. Moreover, the IC50 in the assay with SKBr3 cells was 0.63 µM.

On Hsp90, `COC1CCC=CC(=O)Nc2cc(cc(O)c2CN2CCOCC2)CC(C)CC(OC)C(O)C(C)C=C(C)C1OC(N)=O` (centres unmarked) [Compound 1-G] registered a Kd of 640 nM. Also, in the assay on SKBr3 cells, the IC50 is greater than 5 µM.

In turn, `COC(=O)COc1cc2cc(c1)NC(=O)C=CCCC(OC)C(OC(N)=O)C(C)=CC(C)C(O)C(OC)CC(C)C2` (centres unmarked) [Compound 1-H] yielded a dissociation constant (Kd) on Hsp90 of 360 nM. In addition, the IC50 in the assay with SKBr3 cells is greater than 5 µM.

`COC1CCC=CC(=O)Nc2cc(cc(OCC(=O)O)c2)CC(C)CC(OC)C(O)C(C)C=C(C)C1OC(N)=O` (centres unmarked) [Compound 1-I] returned a Kd at Hsp90 of 930 nM. Further, the IC50 in the assay with SKBr3 cells is greater than 5 µM.

In the case of `COC1CCC=CC(=O)Nc2cc(cc(O)c2Br)CC(C)CC(OC)C(O)C(C)C=C(C)C1OC(N)=O` (centres unmarked) [Compound 1-J], the dissociation constant (Kd) on Hsp90 amounted to 1700 nM. For the same compound, in the assay on SKBr3 cells, the IC50 is greater than 5 µM.

As to `COC1CCC=CC(=O)Nc2cc(O)c(Br)c(c2)CC(C)CC(OC)C(O)C(C)C=C(C)C1OC(N)=O` (centres unmarked) [Compound 1-K], binding at Hsp90 was put at a Kd of 140 nM. Moreover, the concentration for half-maximal inhibition (IC50) in the assay on SKBr3 cells came to 0.8 µM.

`COC1CCC=CC(=O)Nc2cc(c(Br)c(O)c2Br)CC(C)CC(OC)C(O)C(C)C=C(C)C1OC(N)=O` (centres unmarked) [Compound 1-M]: the dissociation constant Kd on Hsp90 was found to be 5900 nM. Also, the IC50 with SKBr3 cells was greater than 5 µM.

The compound `COC1CCC=CC(=O)Nc2cc(c(CN(C)CCN(C)C)c(O)c2Br)CC(C)CC(OC)C(O)C(C)C=C(C)C1OC(N)=O` (centres unmarked) [Compound 1-N] yielded a dissociation constant (Kd) on Hsp90 of 31000 nM. Moreover, the IC50 in the assay with SKBr3 cells is greater than 5 µM.

Consider `COC1=C2C[C@@H](C)C[C@H](OC)[C@H](O)[C@@H](C)/C=C(\C)[C@H](OC(N)=O)[C@@H](OC)/C=C\C=C(/C)C(=O)NC(=CC1=O)C2=O` [Geldanamycin, reference compound], for which the IC50 in the assay on SKBr3 cells turned out to be 0.023 µM.

In turn, `CO[C@H]1C[C@H](C)Cc2cc(O)cc(c2)NC(=O)CC(O)CC[C@H](OC)[C@@H](OC(N)=O)/C(C)=C/[C@H](C)[C@H]1O` (some centres unmarked) [III] had an equilibrium dissociation constant (Kd) on Hsp90 of 1000 nM. For the same compound, the 50% inhibitory concentration (IC50) in the assay with SKBr3 cells was greater than 5 µM.

`CO[C@H]1C[C@H](C)Cc2cc(O)cc(c2)NC(=O)CC(O)CC[C@H](OC)[C@@H](O)/C(C)=C/[C@H](C)[C@H]1O` (some centres unmarked) [IV]: binding at Hsp90 was put at a Kd of 17000 nM. Besides, in the assay on SKBr3 cells, the IC50 is greater than 5 µM.
